± gives the expanded uncertainty stated by the source.
Key:
[1] = xn = mol fraction of the nth substance listed; conditions: 101 kPa, Liquid, x2 = 0; for mass density: Vibrating tube method; for viscosity: Vibrating wire viscometry; for speed of sound: ultrasonic interferometer
[2] = 101 kPa, Liquid; for mass density: Vibrating tube method; for viscosity: Vibrating wire viscometry; for speed of sound: ultrasonic interferometer

SMILES | mass density ([1]; 298.15 K) [kg/m3] | viscosity ([1]; 298.15 K) [mPa·s] | speed of sound ([1]; 298.15 K) [m/s] | mass density ([1]; 303.15 K) [kg/m3] | viscosity ([1]; 303.15 K) [mPa·s] | speed of sound ([1]; 303.15 K) [m/s] | mass density ([1]; 308.15 K) [kg/m3] | viscosity ([1]; 308.15 K) [mPa·s] | mass density ([2]; 298.15 K) [kg/m3] | viscosity ([2]; 298.15 K) [mPa·s] | speed of sound ([2]; 298.15 K) [m/s] | mass density ([2]; 303.15 K) [kg/m3] | viscosity ([2]; 303.15 K) [mPa·s] | speed of sound ([2]; 303.15 K) [m/s] | mass density ([2]; 308.15 K) [kg/m3] | viscosity ([2]; 308.15 K) [mPa·s] | speed of sound ([2]; 308.15 K) [m/s] | mass density ([2]; 313.15 K) [kg/m3] | viscosity ([2]; 313.15 K) [mPa·s] | speed of sound ([2]; 313.15 K) [m/s] | further results
CN1CCCC1=O [N-methylpyrrolidone] + C[NH+](C)C.O=S(=O)([O-])O | 1025.9 ± 0.3 | 1.66 ± 0.1 | 1572 ± 20 | 1023.74 ± 0.32 | 1.49 ± 0.09 | 1552 ± 20 | 1019.25 ± 0.32 | 1.39 ± 0.08 | – | – | – | – | – | – | – | – | – | – | – | – | speed of sound ([1]; 308.15 K): 1528 ± 20 m/s; mass density ([1]; 313.15 K): 1014.74 ± 0.31 kg/m3; viscosity ([1]; 313.15 K): 1.31 ± 0.08 mPa·s; speed of sound ([1]; 313.15 K): 1520 ± 20 m/s
CN1CCCC1=O [N-methylpyrrolidone] + CC(=O)[O-].C[NH+](C)C | 1025.9 ± 0.32 | 1.66 ± 0.1 | 1572 ± 20 | 1023.74 ± 0.32 | 1.49 ± 0.09 | 1552 ± 20 | 1019.25 ± 0.32 | 1.39 ± 0.08 | – | – | – | – | – | – | – | – | – | – | – | – | speed of sound ([1]; 308.15 K): 1528 ± 20 m/s; mass density ([1]; 313.15 K): 1014.74 ± 0.31 kg/m3; viscosity ([1]; 313.15 K): 1.31 ± 0.08 mPa·s; speed of sound ([1]; 313.15 K): 1520 ± 20 m/s
C[NH+](C)C.O=S(=O)([O-])O [trimethylammonium hydrogen sulfate] | – | – | – | – | – | – | – | – | 1467.58 ± 0.83 | 5.1 ± 0.31 | 1564 ± 20 | 1463.56 ± 0.82 | 4.48 ± 0.27 | 1560 ± 20 | 1463.5 ± 0.82 | 3.94 ± 0.24 | 1556 ± 20 | 1455.63 ± 0.82 | 3.16 ± 0.19 | 1552 ± 20 | –
CN1CCCC1=O [N-methylpyrrolidone] + CCN(CC)CC.O=P(O)(O)O | 1025.9 ± 0.32 | 1.66 ± 0.1 | 1572 ± 20 | 1023.74 ± 0.32 | 1.49 ± 0.09 | 1552 ± 20 | 1019.25 ± 0.32 | 1.39 ± 0.08 | – | – | – | – | – | – | – | – | – | – | – | – | speed of sound ([1]; 308.15 K): 1528 ± 20 m/s; mass density ([1]; 313.15 K): 1014.74 ± 0.31 kg/m3; viscosity ([1]; 313.15 K): 1.31 ± 0.08 mPa·s; speed of sound ([1]; 313.15 K): 1520 ± 20 m/s
C[NH+](C)C.O=P([O-])(O)O [trimethylammonium dihydrogen phosphate] | – | – | – | – | – | – | – | – | 1353.61 ± 0.69 | 7.64 ± 0.46 | 1672 ± 20 | 1350.62 ± 0.68 | 6.46 ± 0.39 | 1660 ± 20 | 1347.59 ± 0.68 | 5.61 ± 0.34 | 1661 ± 20 | 1344.53 ± 0.68 | 5.07 ± 0.31 | 1664 ± 20 | –
CCN(CC)CC.O=P(O)(O)O [triethylammonium dihydrogen phosphate] | – | – | – | – | – | – | – | – | 1125.7 ± 0.43 | 64.31 ± 3.9 | 1794 ± 20 | 1124.68 ± 0.43 | 57.1 ± 3.4 | 1769 ± 20 | 1123.71 ± 0.42 | 49.53 ± 3 | 1757 ± 20 | 1122.37 ± 0.42 | 38.31 ± 2.3 | 1730 ± 20 | –
CN1CCCC1=O [N-methylpyrrolidone] | – | – | – | – | – | – | – | – | 1025.9 ± 0.32 | 1.66 ± 0.1 | 1572 ± 20 | 1023.74 ± 0.32 | 1.49 ± 0.09 | 1552 ± 20 | 1019.25 ± 0.32 | 1.39 ± 0.08 | 1528 ± 20 | 1014.74 ± 0.31 | 1.31 ± 0.08 | 1520 ± 20 | –
CC(=O)[O-].C[NH+](C)C [trimethylammonium acetate] | – | – | – | – | – | – | – | – | 1053.85 ± 0.35 | 2.76 ± 0.17 | 1544 ± 20 | 1049.87 ± 0.35 | 2.37 ± 0.14 | 1514 ± 20 | 1045.81 ± 0.35 | 2.06 ± 0.12 | 1508 ± 20 | 1041.7 ± 0.34 | 1.83 ± 0.11 | 1490 ± 20 | –
CN1CCCC1=O [N-methylpyrrolidone] + C[NH+](C)C.O=P([O-])(O)O | 1025.9 ± 0.32 | 1.66 ± 0.1 | 1572 ± 20 | 1023.74 ± 0.32 | 1.49 ± 0.09 | 1552 ± 20 | 1019.25 ± 0.32 | 1.39 ± 0.08 | – | – | – | – | – | – | – | – | – | – | – | – | speed of sound ([1]; 308.15 K): 1528 ± 20 m/s; mass density ([1]; 313.15 K): 1014.74 ± 0.31 kg/m3; viscosity ([1]; 313.15 K): 1.31 ± 0.08 mPa·s; speed of sound ([1]; 313.15 K): 1520 ± 20 m/s
